pIC50: −log10 of the molar value.
Assays:
[1] = biological target: T1, Mitogen-activated protein kinase kinase kinase 5 (Homo sapiens, UniProt Q99683); assay: Inhibition of ASK1 (unknown origin)
T1 sequence (Q99683 whole entry): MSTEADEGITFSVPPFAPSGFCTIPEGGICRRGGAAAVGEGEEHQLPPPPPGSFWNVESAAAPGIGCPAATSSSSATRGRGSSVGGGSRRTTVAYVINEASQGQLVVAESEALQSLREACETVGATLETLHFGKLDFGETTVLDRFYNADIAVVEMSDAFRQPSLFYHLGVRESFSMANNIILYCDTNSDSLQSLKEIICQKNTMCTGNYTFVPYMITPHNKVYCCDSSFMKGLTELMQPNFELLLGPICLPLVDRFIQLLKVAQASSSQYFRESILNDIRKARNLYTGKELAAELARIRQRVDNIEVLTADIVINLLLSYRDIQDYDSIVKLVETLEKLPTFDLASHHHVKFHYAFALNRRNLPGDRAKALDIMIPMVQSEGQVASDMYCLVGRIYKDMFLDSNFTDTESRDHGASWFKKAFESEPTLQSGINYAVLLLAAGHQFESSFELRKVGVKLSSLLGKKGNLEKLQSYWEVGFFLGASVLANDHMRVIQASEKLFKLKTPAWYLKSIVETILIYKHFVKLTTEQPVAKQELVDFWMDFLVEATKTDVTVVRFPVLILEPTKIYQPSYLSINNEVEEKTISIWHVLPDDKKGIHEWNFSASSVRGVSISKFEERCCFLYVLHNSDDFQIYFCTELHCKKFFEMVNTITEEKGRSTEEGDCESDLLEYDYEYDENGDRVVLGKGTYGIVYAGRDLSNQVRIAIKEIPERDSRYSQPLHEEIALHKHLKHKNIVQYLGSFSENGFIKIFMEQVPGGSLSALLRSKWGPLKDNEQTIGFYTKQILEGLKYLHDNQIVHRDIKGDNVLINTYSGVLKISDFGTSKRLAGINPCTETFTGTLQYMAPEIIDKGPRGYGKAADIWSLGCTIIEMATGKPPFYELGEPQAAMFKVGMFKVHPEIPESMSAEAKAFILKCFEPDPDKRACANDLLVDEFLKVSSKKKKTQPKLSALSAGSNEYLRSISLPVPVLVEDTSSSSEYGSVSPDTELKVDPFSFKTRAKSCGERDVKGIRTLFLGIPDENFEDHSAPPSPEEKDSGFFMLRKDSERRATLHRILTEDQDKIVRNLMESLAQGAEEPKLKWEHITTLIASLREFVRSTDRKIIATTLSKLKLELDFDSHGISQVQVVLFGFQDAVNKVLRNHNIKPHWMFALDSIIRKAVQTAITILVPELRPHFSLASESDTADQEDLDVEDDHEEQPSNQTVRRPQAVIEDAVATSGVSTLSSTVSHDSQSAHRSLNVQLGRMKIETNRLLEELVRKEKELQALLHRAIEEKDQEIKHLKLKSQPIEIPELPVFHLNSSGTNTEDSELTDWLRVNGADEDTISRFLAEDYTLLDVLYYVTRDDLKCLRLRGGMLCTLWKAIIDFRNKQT

[2] = biological target: T2, Mitogen-activated protein kinase kinase kinase 7 (Homo sapiens, UniProt O43318); assay: Inhibition of TAK1 (unknown origin)
T2 sequence (O43318 whole entry): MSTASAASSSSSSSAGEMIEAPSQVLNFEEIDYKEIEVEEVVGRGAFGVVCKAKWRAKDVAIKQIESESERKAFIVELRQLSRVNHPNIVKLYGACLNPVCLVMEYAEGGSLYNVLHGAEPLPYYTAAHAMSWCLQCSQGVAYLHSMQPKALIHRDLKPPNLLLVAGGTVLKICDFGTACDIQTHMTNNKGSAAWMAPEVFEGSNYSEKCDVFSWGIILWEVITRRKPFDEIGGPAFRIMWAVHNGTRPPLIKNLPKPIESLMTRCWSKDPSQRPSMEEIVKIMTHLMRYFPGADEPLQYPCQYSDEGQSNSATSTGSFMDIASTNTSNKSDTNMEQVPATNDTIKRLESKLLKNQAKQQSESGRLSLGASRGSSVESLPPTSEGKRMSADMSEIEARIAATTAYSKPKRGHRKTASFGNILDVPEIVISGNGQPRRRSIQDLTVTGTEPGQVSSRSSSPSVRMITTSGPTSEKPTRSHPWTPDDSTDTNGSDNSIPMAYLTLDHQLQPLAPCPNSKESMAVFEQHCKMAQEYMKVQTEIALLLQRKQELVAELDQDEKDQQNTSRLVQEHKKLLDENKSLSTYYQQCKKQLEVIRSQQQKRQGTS

[3] = Inhibition of human full length recombinant CDK9/cyclin T1 using KTFCGTPEYLAPE as substrate incubated for 40 mins in presence of [gamma-33ATP] by radiometric scintillation counting analysis
[4] = biological target: Glycogen synthase kinase-3 beta (Homo sapiens, UniProt P49841); assay: Inhibition of human recombinant GSK3 beta H350L mutant using YRRAAVPPSPSLSR as substrate incubated for 40 mins in presence of [gamma-33ATP] by radiometric scintillation counting analysis
Sequence of Glycogen synthase kinase-3 beta (P49841 whole entry): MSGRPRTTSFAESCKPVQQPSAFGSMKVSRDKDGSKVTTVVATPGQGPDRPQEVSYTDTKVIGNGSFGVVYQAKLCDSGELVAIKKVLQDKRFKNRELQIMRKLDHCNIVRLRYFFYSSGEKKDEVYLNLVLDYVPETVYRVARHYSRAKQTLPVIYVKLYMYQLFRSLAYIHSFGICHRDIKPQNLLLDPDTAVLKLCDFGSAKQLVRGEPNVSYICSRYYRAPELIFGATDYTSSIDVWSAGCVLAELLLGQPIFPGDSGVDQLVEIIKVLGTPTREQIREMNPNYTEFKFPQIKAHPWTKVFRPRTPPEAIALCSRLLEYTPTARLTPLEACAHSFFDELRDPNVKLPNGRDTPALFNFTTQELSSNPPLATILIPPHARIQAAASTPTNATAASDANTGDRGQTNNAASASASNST

[5] = biological target: Non-receptor tyrosine-protein kinase TYK2 (Homo sapiens, UniProt P29597); assay: Inhibition of human recombinant TYK2 (875 to end residues) using GGMEDIYFEFMGG as substrate incubated for 40 mins in presence of [gamma-33ATP] by radiometric scintillation counting analysis
Sequence of Non-receptor tyrosine-protein kinase TYK2 (P29597 whole entry): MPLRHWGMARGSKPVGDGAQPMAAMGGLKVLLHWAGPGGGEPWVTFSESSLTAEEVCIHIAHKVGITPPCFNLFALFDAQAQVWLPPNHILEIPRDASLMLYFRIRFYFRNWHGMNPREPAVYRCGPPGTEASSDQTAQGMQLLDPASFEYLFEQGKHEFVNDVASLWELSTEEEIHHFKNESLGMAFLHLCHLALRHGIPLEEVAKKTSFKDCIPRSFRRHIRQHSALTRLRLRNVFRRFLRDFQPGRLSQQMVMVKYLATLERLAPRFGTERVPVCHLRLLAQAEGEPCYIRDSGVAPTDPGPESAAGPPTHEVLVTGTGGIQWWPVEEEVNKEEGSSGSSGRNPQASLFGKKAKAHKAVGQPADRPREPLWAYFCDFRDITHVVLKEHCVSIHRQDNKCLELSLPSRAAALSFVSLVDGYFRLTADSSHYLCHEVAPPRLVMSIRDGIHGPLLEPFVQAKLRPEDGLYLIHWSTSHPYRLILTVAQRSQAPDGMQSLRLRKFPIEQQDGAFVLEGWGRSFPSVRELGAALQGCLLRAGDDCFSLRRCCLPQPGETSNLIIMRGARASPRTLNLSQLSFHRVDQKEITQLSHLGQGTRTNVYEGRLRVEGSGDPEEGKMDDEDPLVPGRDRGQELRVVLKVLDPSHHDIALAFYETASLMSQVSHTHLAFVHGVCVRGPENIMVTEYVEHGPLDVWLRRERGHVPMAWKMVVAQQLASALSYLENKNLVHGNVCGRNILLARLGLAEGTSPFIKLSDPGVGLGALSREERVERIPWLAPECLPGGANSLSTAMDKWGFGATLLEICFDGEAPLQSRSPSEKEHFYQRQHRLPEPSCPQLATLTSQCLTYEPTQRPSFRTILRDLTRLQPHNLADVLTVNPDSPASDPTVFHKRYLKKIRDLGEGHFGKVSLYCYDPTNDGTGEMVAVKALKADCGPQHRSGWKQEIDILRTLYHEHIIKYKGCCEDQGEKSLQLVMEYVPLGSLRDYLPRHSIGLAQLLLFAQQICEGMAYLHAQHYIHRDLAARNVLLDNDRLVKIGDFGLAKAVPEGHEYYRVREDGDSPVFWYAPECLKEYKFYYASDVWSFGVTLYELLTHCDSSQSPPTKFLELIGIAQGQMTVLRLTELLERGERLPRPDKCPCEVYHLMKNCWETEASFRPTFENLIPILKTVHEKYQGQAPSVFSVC

[6] = system: HepG2; assay: Induction of cell cycle arrest in human HepG2 cells assessed as accumulation at G0/G1 phase at 0.5 uM incubated for 24 hrs by propidium iodide staining based flow cytometry (reference value: 38.34%); assay type: functional
[7] = system: HepG2; assay: Induction of cell cycle arrest in human HepG2 cells assessed as accumulation at G0/G1 phase at 1 uM incubated for 24 hrs by propidium iodide staining based flow cytometry (reference value: 38.34%); assay type: functional
[8] = system: HepG2; assay: Induction of cell cycle arrest in human HepG2 cells assessed as accumulation at G2/M phase at 1 uM incubated for 24 hrs by propidium iodide staining based flow cytometry (reference value: 33.49%); assay type: functional
[9] = system: HepG2; assay: Induction of cell cycle arrest in human HepG2 cells assessed as accumulation at G2/M phase at 2 uM incubated for 24 hrs by propidium iodide staining based flow cytometry (reference value: 33.49%); assay type: functional
[10] = system: HepG2; assay: Induction of cell cycle arrest in human HepG2 cells assessed as accumulation at S phase at 4 uM incubated for 24 hrs by propidium iodide staining based flow cytometry (reference value: 33.27%); assay type: functional
[11] = system: HepG2; assay: Induction of cell cycle arrest in human HepG2 cells assessed as accumulation at G2/M phase at 4 uM incubated for 24 hrs by propidium iodide staining based flow cytometry (reference value: 33.49%); assay type: functional
[12] = system: HepG2; assay: Induction of cell cycle arrest in human HepG2 cells assessed as accumulation at G0/G1 phase at 8 uM incubated for 24 hrs by propidium iodide staining based flow cytometry (reference value: 38.34%); assay type: functional
[13] = system: HepG2; assay: Induction of cell cycle arrest in human HepG2 cells assessed as accumulation at G2/M phase at 16 uM incubated for 24 hrs by propidium iodide staining based flow cytometry (reference value: 33.49%); assay type: functional

SMILES: C[C@H](CO)n1cnnc1-c1cccc(NC(=O)Nc2cc3ccccn3n2)n1
- pIC50 [1]: 7.47
- pIC50 [2]: 5.30
- pIC50 [3]: 7.03
- pIC50 [4]: 6.55
- pIC50 [5]: 5.77
- Activity [6]: 46.22%
- Activity [7]: 60.13%
- Activity [8]: 30.59%
- Activity [9]: 34.32%
- Activity [10]: 7.9%
- Activity [11]: 34.25%
- Activity [12]: 66.65%
- Activity [13]: 32.64%

— ChEMBL document CHEMBL4680251, “Discovery of a 2-pyridinyl urea-containing compound YD57 as a potent inhibitor of apoptosis signal-regulating kinase 1 (ASK1)” (Eur J Med Chem, 2020)
